# In the supplement of paper PMC9663587:
# Columns and labels:
# [1] = compound: CCc1cnn2c(NCc3ccc[n+]([O-])c3)cc(N3CCCC[C@H]3CCO)nc12
# LEE011/Ribociclib [2] = compound: T1, CN(C)C(=O)c1cc2cnc(Nc3ccc(N4CCNCC4)cn3)nc2n1C1CCCC1 [LEE011/Ribociclib]
# Doxorubicin = compound: COc1cccc2c1C(=O)c1c(O)c3c(c(O)c1C2=O)C[C@@](O)(C(=O)CO)C[C@@H]3O[C@H]1C[C@H](N)[C@H](O)[C@H](C)O1 [Doxorubicin]
# Pictilisib/GDC0941 = compound: CS(=O)(=O)N1CCN(Cc2cc3nc(-c4cccc5[nH]ncc45)nc(N4CCOCC4)c3s2)CC1 [Pictilisib/GDC0941]
# Ceritinib/LDK378 = compound: Cc1cc(Nc2ncc(Cl)c(Nc3ccccc3S(=O)(=O)C(C)C)n2)c(OC(C)C)cc1C1CCNCC1 [Ceritinib/LDK378]
# [3] = compound: Cc1nn(C)c(COc2ccc(N3CCN(S(=O)(=O)N(C)C)CC3)cc2)c1-c1cccc2c(CCCOc3cccc4ccccc34)c(C(=O)O)n(CCN3CCOCC3)c12
# YKL-5-124 = compound: C=CC(=O)Nc1ccc(C(=O)Nc2[nH]nc3c2CN(C(=O)N[C@H](CN(C)C)c2ccccc2)C3(C)C)cc1 [YKL-5-124]; assay: increase in dead-cell fraction, 72 h; higher = more death;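 note: breast cancer cell lines in 384-well plates, stained with Hoechst plus LIVE/DEAD far red dye and imaged, cells above an LDR intensity threshold counted dead, Hoechst-negative corpses included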
# BSJ-03-123 = compound: CC(=O)c1c(C)c2cnc(Nc3ccc(N4CCN(CCOCCOCCOCCNC(=O)COc5cccc6c5C(=O)N(C5CCC(=O)NC5=O)C6=O)CC4)cn3)nc2n(C2CCCC2)c1=O [BSJ-03-123]; assay: as above
# [4] = compound: CC(=O)c1c(C)c2cnc(Nc3ccc(N4CCNCC4)cn3)nc2n(C2CCCC2)c1=O; assay: as above
# [5] = compound: CCN1CCN(Cc2ccc(Nc3ncc(F)c(-c4cc(F)c5nc(C)n(C(C)C)c5c4)n3)nc2)CC1; assay: as above
# Neratinib/HKI272 = compound: CCOc1cc2ncc(C#N)c(Nc3ccc(OCc4ccccn4)c(Cl)c3)c2cc1NC(=O)/C=C/CN(C)C [Neratinib/HKI272]; assay: as above
# [6] = compound: CCc1cnn2c(NCc3ccc[n+]([O-])c3)cc(N3CCCC[C@H]3CCO)nc12; assay: as above
# LEE011/Ribociclib [7] = compound: T1, LEE011/Ribociclib; assay: as above
# THZ531 = compound: CN(C)C/C=C/C(=O)Nc1ccc(C(=O)N2CCC[C@@H](Nc3ncc(Cl)c(-c4c[nH]c5ccccc45)n3)C2)cc1 [THZ531]; assay: as above
# THZ1 = compound: CN(C)C/C=C/C(=O)Nc1ccc(C(=O)Nc2cccc(Nc3ncc(Cl)c(-c4c[nH]c5ccccc45)n3)c2)cc1 [THZ1]; assay: as above
# Flavopiridol = compound: CN1CC[C@H](c2c(O)cc(O)c3c(=O)cc(-c4ccccc4Cl)oc23)[C@H](O)C1 [Flavopiridol]; assay: as above
# 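Throughout, for GR50, 72 h: breast cancer and non-malignant breast epithelial cell lines, Deep Dye Drop or Dye Drop imaging, nine half-log doses, GR normalized to time-zero plates and DMSO-only controls.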
cell line,measurement,setting,value
BT474,"GR50, 72 h",[1],0.0162 µM
same,"GR50, 72 h",LEE011/Ribociclib [2],> 10 µM
same,"GR50, 72 h",Doxorubicin,0.0267 µM
same,"GR50, 72 h",Pictilisib/GDC0941,0.188 µM
same,"GR50, 72 h",Ceritinib/LDK378,> 10 µM
same,"GR50, 72 h",[3],> 10 µM
same,increase in dead-cell fraction,YKL-5-124; 0.001 µM,0.0145
same,increase in dead-cell fraction,YKL-5-124; 0.003162 µM,0.0218
same,increase in dead-cell fraction,YKL-5-124; 0.01 µM,0.019
same,increase in dead-cell fraction,YKL-5-124; 0.03162 µM,0.0189
same,increase in dead-cell fraction,YKL-5-124; 0.1 µM,0.0303
same,increase in dead-cell fraction,YKL-5-124; 0.3162 µM,0.0351
same,increase in dead-cell fraction,YKL-5-124; 1 µM,0.0209
same,increase in dead-cell fraction,YKL-5-124; 3.162 µM,0.0235
same,increase in dead-cell fraction,YKL-5-124; 10 µM,0.182
same,increase in dead-cell fraction,BSJ-03-123; 0.001 µM,0.0078
same,increase in dead-cell fraction,BSJ-03-123; 0.003162 µM,0.0052
same,increase in dead-cell fraction,BSJ-03-123; 0.01 µM,0.0155
same,increase in dead-cell fraction,BSJ-03-123; 0.03162 µM,0.004
same,increase in dead-cell fraction,BSJ-03-123; 0.1 µM,0.0074
same,increase in dead-cell fraction,BSJ-03-123; 0.3162 µM,0.0224
same,increase in dead-cell fraction,BSJ-03-123; 1 µM,0.0243
same,increase in dead-cell fraction,BSJ-03-123; 3.162 µM,0.0241
same,increase in dead-cell fraction,BSJ-03-123; 10 µM,0.0415
same,increase in dead-cell fraction,[4]; 0.0003162 µM,-0.0048
same,increase in dead-cell fraction,[4]; 0.001 µM,-0.0003
same,increase in dead-cell fraction,[4]; 0.003162 µM,-0.0027
same,increase in dead-cell fraction,[4]; 0.01 µM,0.0006
same,increase in dead-cell fraction,[4]; 0.03162 µM,0.0074
same,increase in dead-cell fraction,[4]; 0.1 µM,0.0103
same,increase in dead-cell fraction,[4]; 0.3162 µM,0.0169
same,increase in dead-cell fraction,[4]; 1 µM,0.0196
same,increase in dead-cell fraction,[4]; 3.162 µM,0.0256
same,increase in dead-cell fraction,[5]; 0.001 µM,-0.005
same,increase in dead-cell fraction,[5]; 0.003162 µM,-0.0017
same,increase in dead-cell fraction,[5]; 0.01 µM,0.0057
same,increase in dead-cell fraction,[5]; 0.03162 µM,0.0071
same,increase in dead-cell fraction,[5]; 0.1 µM,0.0213
same,increase in dead-cell fraction,[5]; 0.3162 µM,0.01
same,increase in dead-cell fraction,[5]; 1 µM,0.0104
same,increase in dead-cell fraction,[5]; 3.162 µM,0.0016
same,increase in dead-cell fraction,[5]; 10 µM,0.0194
same,increase in dead-cell fraction,Neratinib/HKI272; 0.0003162 µM,0.0014
same,increase in dead-cell fraction,Neratinib/HKI272; 0.001 µM,0.0075
same,increase in dead-cell fraction,Neratinib/HKI272; 0.003162 µM,0.0456
same,increase in dead-cell fraction,Neratinib/HKI272; 0.01 µM,0.235
same,increase in dead-cell fraction,Neratinib/HKI272; 0.03162 µM,0.359
same,increase in dead-cell fraction,Neratinib/HKI272; 0.1 µM,0.369
same,increase in dead-cell fraction,Neratinib/HKI272; 0.3162 µM,0.38
same,increase in dead-cell fraction,Neratinib/HKI272; 1 µM,0.438
same,increase in dead-cell fraction,Neratinib/HKI272; 3.162 µM,0.471
same,increase in dead-cell fraction,[6]; 0.0001 µM,-0.0025
same,increase in dead-cell fraction,[6]; 0.0003162 µM,-0.0015
same,increase in dead-cell fraction,[6]; 0.001 µM,-0.0013
same,increase in dead-cell fraction,[6]; 0.003162 µM,-0.002
same,increase in dead-cell fraction,[6]; 0.01 µM,0.0053
same,increase in dead-cell fraction,[6]; 0.03162 µM,0.207
same,increase in dead-cell fraction,[6]; 0.1 µM,0.246
same,increase in dead-cell fraction,[6]; 0.3162 µM,0.265
same,increase in dead-cell fraction,[6]; 1 µM,0.249
same,increase in dead-cell fraction,LEE011/Ribociclib [7]; 0.001 µM,0.0109
same,increase in dead-cell fraction,LEE011/Ribociclib [7]; 0.003162 µM,0.0057
same,increase in dead-cell fraction,LEE011/Ribociclib [7]; 0.01 µM,0.0072
same,increase in dead-cell fraction,LEE011/Ribociclib [7]; 0.03162 µM,0.0158
same,increase in dead-cell fraction,LEE011/Ribociclib [7]; 0.1 µM,0.0086
same,increase in dead-cell fraction,LEE011/Ribociclib [7]; 0.3162 µM,0.0122
same,increase in dead-cell fraction,LEE011/Ribociclib [7]; 1 µM,0.0254
same,increase in dead-cell fraction,LEE011/Ribociclib [7]; 3.162 µM,0.0157
same,increase in dead-cell fraction,LEE011/Ribociclib [7]; 10 µM,0.0109
same,increase in dead-cell fraction,THZ531; 0.0001 µM,-0.0031
same,increase in dead-cell fraction,THZ531; 0.0003162 µM,0.0048
same,increase in dead-cell fraction,THZ531; 0.001 µM,0.003
same,increase in dead-cell fraction,THZ531; 0.003162 µM,-0.0009
same,increase in dead-cell fraction,THZ531; 0.01 µM,-0.0036
same,increase in dead-cell fraction,THZ531; 0.03162 µM,0.0037
same,increase in dead-cell fraction,THZ531; 0.1 µM,0.17
same,increase in dead-cell fraction,THZ531; 0.3162 µM,0.413
same,increase in dead-cell fraction,THZ531; 1 µM,0.229
same,increase in dead-cell fraction,THZ1; 0.0001 µM,-0.0007
same,increase in dead-cell fraction,THZ1; 0.0003162 µM,-0.0012
same,increase in dead-cell fraction,THZ1; 0.001 µM,-0.0015
same,increase in dead-cell fraction,THZ1; 0.003162 µM,-0.0036
same,increase in dead-cell fraction,THZ1; 0.01 µM,0.0152
same,increase in dead-cell fraction,THZ1; 0.03162 µM,0.0225
same,increase in dead-cell fraction,THZ1; 0.1 µM,0.175
same,increase in dead-cell fraction,THZ1; 0.3162 µM,0.221
same,increase in dead-cell fraction,THZ1; 1 µM,0.139
same,increase in dead-cell fraction,Flavopiridol; 0.0001 µM,0.0042
same,increase in dead-cell fraction,Flavopiridol; 0.0003162 µM,0.0024
same,increase in dead-cell fraction,Flavopiridol; 0.001 µM,-0.0008
same,increase in dead-cell fraction,Flavopiridol; 0.003162 µM,0.0046
same,increase in dead-cell fraction,Flavopiridol; 0.01 µM,-0.0017
same,increase in dead-cell fraction,Flavopiridol; 0.03162 µM,0.003
same,increase in dead-cell fraction,Flavopiridol; 0.1 µM,0.0067
same,increase in dead-cell fraction,Flavopiridol; 0.3162 µM,0.0397
same,increase in dead-cell fraction,Flavopiridol; 1 µM,0.274
